Experimental data from ChEMBL document CHEMBL1201862, “PubChem BioAssay data set” (2004).
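Protocol summary: plate cells (96-well), add compound at 5 concentrations, incubate 48 h, interpolate endpoints linearly. GI50: concentration for 50% inhibition of growth.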 Activity calls are given as the source filed them. Rule as the data show it: active = GI50 up to about 1.1 µM and inactive = higher.

Tests used:
Assay in all cases: NCI anticancer screen, dose series, 48 h
Hs-578T = tested on: Hs-578T
COLO 205 = tested on: COLO 205
SNB-19 = tested on: SNB-19
MCF7 = tested on: MCF7
SF-295 = tested on: SF-295
SN12C = tested on: SN12C
A549 = tested on: A549
HCC 2998 = tested on: HCC 2998
SR = tested on: SR
TK-10 = tested on: TK-10
HOP-62 = tested on: HOP-62
K562 = tested on: K562
HOP-92 = tested on: HOP-92
NCI-H23 = tested on: NCI-H23
MDA-N = tested on: MDA-N
U-251 = tested on: U-251
NCI-H460 = tested on: NCI-H460
SF-268 = tested on: SF-268
NCI-H226 = tested on: NCI-H226
HCT-15 = tested on: HCT-15
HCT-116 = tested on: HCT-116
OVCAR-4 = tested on: OVCAR-4
SF-539 = tested on: SF-539
PC-3 = tested on: PC-3
HT-29 = tested on: HT-29
LOX IMVI = tested on: LOX IMVI
KM12 = tested on: KM12
UACC-257 = tested on: UACC-257
T47D = tested on: T47D
SK-MEL-5 = tested on: SK-MEL-5
IGROV-1 = tested on: IGROV-1
SK-MEL-2 = tested on: SK-MEL-2
UO-31 = tested on: UO-31
CAKI-1 = tested on: CAKI-1
SW-620 = tested on: SW-620
OVCAR-5 = tested on: OVCAR-5
RPMI-8226 = tested on: RPMI-8226
SNB-75 = tested on: SNB-75
EKVX = tested on: EKVX
CCRF-CEM = tested on: CCRF-CEM
Malme-3M = tested on: Malme-3M
M14 = tested on: M14
MDA-MB-231 = tested on: MDA-MB-231
ACHN = tested on: ACHN
UACC-62 = tested on: UACC-62
NCI-H522 = tested on: NCI-H522
SK-OV-3 = tested on: SK-OV-3
NCI/ADR-RES = tested on: NCI/ADR-RES
MDA-MB-435 = tested on: MDA-MB-435
OVCAR-8 = tested on: OVCAR-8
786-0 = tested on: 786-0
OVCAR-3 = tested on: OVCAR-3
BT-549 = tested on: BT-549
MOLT-4 = tested on: MOLT-4
RXF 393 = tested on: RXF 393

In the case of `CCc1n[nH]c(=O)n1CCCCCCCCn1c(CC)n[nH]c1=O`, the GI50 (Hs-578T) was > 100 µM (inactive), the GI50 (COLO 205) was > 100 µM (inactive) and the GI50 (SNB-19) was > 100 µM (inactive). The GI50 (MCF7) was > 100 µM (inactive), the GI50 (SF-295) was > 100 µM (inactive) and the GI50 (SN12C) was > 100 µM (inactive). The GI50 (A549) was > 100 µM (inactive), the GI50 (HCC 2998) was > 100 µM (inactive) and the GI50 (SR) was > 100 µM (inactive). For the same compound, the GI50 (TK-10) was > 100 µM (inactive), the GI50 (HOP-62) was > 100 µM (inactive) and the GI50 (K562) was > 100 µM (inactive). For the same compound, the GI50 (HOP-92) was > 100 µM (inactive), the GI50 (NCI-H23) was > 100 µM (inactive) and the GI50 (MDA-N) was > 100 µM (inactive). For the same compound, the GI50 (U-251) was > 100 µM (inactive), the GI50 (NCI-H460) was > 100 µM (inactive) and the GI50 (SF-268) was > 100 µM (inactive). The GI50 (NCI-H226) was > 100 µM (inactive), the GI50 (HCT-15) was greater than 100 µM and the GI50 (HCT-116) was > 100 µM (inactive). The GI50 (OVCAR-4) was > 100 µM (inactive), the GI50 (SF-539) was > 100 µM (inactive) and the GI50 (PC-3) was > 100 µM (inactive). The GI50 (HT-29) was > 100 µM (inactive), the GI50 (LOX IMVI) was > 100 µM (inactive) and the GI50 (KM12) was > 100 µM (inactive). The GI50 (UACC-257) was > 100 µM (inactive), the GI50 (T47D) was > 100 µM (inactive) and the GI50 (SK-MEL-5) was > 100 µM (inactive). For the same compound, the GI50 (IGROV-1) was > 100 µM (inactive), the GI50 (SK-MEL-2) was > 100 µM (inactive) and the GI50 (UO-31) was > 100 µM (inactive). For the same compound, the GI50 (CAKI-1) was > 100 µM (inactive), the GI50 (SW-620) was > 100 µM (inactive) and the GI50 (OVCAR-5) was > 100 µM (inactive). The GI50 (RPMI-8226) was > 100 µM (inactive), the GI50 (SNB-75) was > 100 µM (inactive) and the GI50 (EKVX) was > 100 µM (inactive). The GI50 (CCRF-CEM) was > 100 µM (inactive), the GI50 (Malme-3M) was > 100 µM (inactive) and the GI50 (M14) was > 100 µM (inactive). For the same compound, the GI50 (MDA-MB-231) was > 100 µM (inactive), the GI50 (ACHN) was > 100 µM (inactive) and the GI50 (UACC-62) was > 100 µM (inactive). For the same compound, the GI50 (NCI-H522) was > 100 µM (inactive), the GI50 (SK-OV-3) was > 100 µM (inactive) and the GI50 (NCI/ADR-RES) was > 100 µM (inactive). The GI50 (MDA-MB-435) was > 100 µM (inactive), the GI50 (OVCAR-8) was > 100 µM (inactive) and the GI50 (786-0) was > 100 µM (inactive). For the same compound, the GI50 (OVCAR-3) was > 100 µM (inactive), the GI50 (BT-549) was > 100 µM (inactive) and the GI50 (MOLT-4) was > 100 µM (inactive). For the same compound, the GI50 (RXF 393) was > 100 µM (inactive).
